Values after ≈ are worked out from the molar mass of the structure shown.
Experiments:
A. baumannii AR-0033 = experiment: MIC, broth microdilution (CLSI); assay type: cell-based; settings: Acinetobacter baumannii, AR0033; A. baumannii AR-0033 clinical isolate; † = dose-independent trailing growth
Method: (§1) II. Materials and Methods for Biological Experiments
(§2) S. aureus ATCC 29213 and E. coli MG1655 were obtained from the American Type Culture Collection (ATCC). E. coli BW25113 and E. coli JW5503 were obtained from the Keio Collection. AR-bank strains were obtained from the Centers for Disease Control and Prevention and FDA Antibiotic Resistance Isolate Bank.
(§3) Antimicrobial susceptibility tests
(§4) Susceptibility testing was performed in biological triplicate, unless noted otherwise, using the micro-dilution broth method as outlined by the Clinical and Laboratory Standards Institute. Bacteria were cultured with cation-adjusted Mueller Hinton broth (Sigma Aldrich, catalogue number: 90922). […]
(§5) NH3: m/z 391.2 → 171.0. Fabimycin: m/z 405.3 → 145.3. Power analysis was not used to determine the number of replicates. Error bars represent the standard error of the mean of three biological replicates. All compounds evaluated in biological assays were ≥95% pure.

A. baumannii AR-0273 = experiment: MIC, broth microdilution (CLSI); assay type: cell-based; settings: Acinetobacter baumannii, AR0273; A. baumannii AR-0273 clinical isolate
Method: as §1, §2, §3, §4, §5

A. baumannii AR-0299 = experiment: MIC, broth microdilution (CLSI); assay type: cell-based; settings: Acinetobacter baumannii, AR0299; A. baumannii AR-0299 clinical isolate; † = dose-independent trailing growth
Method: as §1, §2, §3, §4, §5

E. coli AR-0048 = experiment: MIC, broth microdilution (CLSI); assay type: cell-based; settings: Escherichia coli, AR0048; E. coli AR-0048 clinical isolate
Method: as §1, §2, §3, §4, §5

E. coli AR-0085 = experiment: MIC, broth microdilution (CLSI); assay type: cell-based; settings: Escherichia coli, AR0085; E. coli AR-0085 clinical isolate
Method: as §1, §2, §3, §4, §5

E. coli MG1655 = experiment: MIC, broth microdilution (CLSI); assay type: cell-based; settings: Escherichia coli
Method: as §1, §2, §3, §4, §5

K. pneumoniae AR-0066 = experiment: MIC, broth microdilution (CLSI); assay type: cell-based; settings: Klebsiella pneumoniae, AR0066; K. pneumoniae AR-0066 clinical isolate
Method: as §1, §2, §3, §4, §5

K. pneumoniae AR-0560 = experiment: MIC, broth microdilution (CLSI); assay type: cell-based; settings: Klebsiella pneumoniae, AR0560; K. pneumoniae AR-0560 clinical isolate
Method: as §1, §2, §3, §4, §5

K. pneumoniae BAA-2472 = experiment: MIC, broth microdilution (CLSI); assay type: cell-based; settings: Klebsiella pneumoniae, BAA2472
Method: as §1, §2, §3, §4, §5

S. aureus ATCC 29213 = experiment: MIC, broth microdilution (CLSI); assay type: cell-based; settings: Staphylococcus aureus, ATCC29213; S. aureus 29213
Method: as §1, §2, §3, §4, §5

E. coli ΔtolC (JW5503) = experiment: MIC, broth microdilution (CLSI); assay type: cell-based, Escherichia coli; settings: Escherichia coli
Method: as §1, §2, §3, §4, §5

A. baumannii AR-0313 = experiment: MIC, broth microdilution (CLSI); assay type: cell-based; settings: Acinetobacter baumannii, AR0313; A. baumannii AR-0313 clinical isolate; † = dose-independent trailing growth
Method: as §1, §2, §3, §4
(§6) Error bars represent the standard error of the mean of three biological replicates. All compounds evaluated in biological assays were ≥95% pure.

K. pneumoniae AR-0113 = experiment: MIC, broth microdilution (CLSI); assay type: cell-based; settings: Klebsiella pneumoniae, AR0113; K. pneumoniae AR-0113 clinical isolate
Method: as §1, §2, §3, §4, §6

A. baumannii FabI = A. baumannii FabI (Acinetobacter baumannii, UniProt D0CAD5); experiment: In vitro FabI enzymatic inhibition assay; assay type: biochemical; settings: AbFabI; Morrison's quadratic fit; 5 nM enzyme; read-out: Ki app
Sequence of A. baumannii FabI (D0CAD5 entry or part of it): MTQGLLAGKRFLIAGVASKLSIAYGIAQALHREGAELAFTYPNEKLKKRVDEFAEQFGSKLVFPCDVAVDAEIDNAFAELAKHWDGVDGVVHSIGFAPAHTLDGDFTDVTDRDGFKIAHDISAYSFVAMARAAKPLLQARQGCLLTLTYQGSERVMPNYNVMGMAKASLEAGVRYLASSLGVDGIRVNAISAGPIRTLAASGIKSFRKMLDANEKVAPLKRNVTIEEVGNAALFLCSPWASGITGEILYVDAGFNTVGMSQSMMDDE
Method: (§7) supplemented with 100 µg/mL ampicillin at 37°C until OD600 reached 0.6-0.7. The cells were induced with 1mM IPTG and incubated for 20 hours at 18°C and spun down at 8000 rpm for 15 minutes. Cell pellet was resuspended in the lysis buffer (50 mM Tris-HCl pH 8.0, 500 mM Na Cl, 20 mM imidazole, 10% glycerol, 0.5 mM TCEP, protease inhibitor and Lysonase) and passed through microfluidizer followed by centrifugation and filtration to remove cell debris. The clarified lysate was supplemented with 20 mM imidazole and passed over a HisTrap column (Cytiva) pre-equilibrated with the wash buffer (50 mM Tris-HCl pH 8.0, 500 mM NaCl, 20 mM imidazole, 10% glycerol, 0.5 mM TCEP). The column was washed with the wash buffer and eluted over a 20-500 mM imidazole gradient. The appropriate fractions were pooled, and the histidine tag was removed by TEV cleavage. The protein mixture was passed over a HisTrap column to separate the cleaved protein from the uncleaved ones. The cleaved protein was pooled and passed over an S75 size exclusion column (GE LifeSciences) pre-equilibrated with 50 mM Tris-HCl pH 8.0, 500 mM NaCl, 0.5 mM TCEP and 10% glycerol. Fractions containing pure protein were pooled, concentrated at 10 mg/mL and stored at -80°C. […]
(§8) In vitro FabI enzymatic inhibition assay
(§9) Recombinant E. coli and A. baummani FabI enzymes were used in a continuous NADH absorbance assay (20 µL in 384w format). Compounds and the Crotonyl-CoA substrate (Sigma–Aldrich 28007) were dispensed into a plate (GeinerBio-One 781101). The reaction was initiated by the addition of a reaction master mix solution containing enzyme and NADH (Sigma–Aldrich N8129) suspended in reaction buffer (50 mM HEPES pH 7.4, 150 mM NaCl, 1 mM EDTA, 0.01 mg/mL BSA, 0.01% Tween). Final concentrations were 5 nM enzyme, 150 μM Crotonyl-CoA, 380 μM NADH, 0.05% DMSO in 1x reaction buffer. After shaking for 5 seconds the reaction was monitored at NADH absorbance (340nm, 25°C) using a Molecular Devices SpectraMax M5 microplate reader. The linear portion of the progress curve was fit using plate-reader software. Percentage activity was calculated relative to DMSO only and no-substrate controls in each plate and the data were fit to Morrison’s quadratic using Graphpad Prism 9.3 to obtain apparent inhibition constant (Ki app) values. […]
(§10) 480 Real-Time PCR System as a function of a temperature ramp (25-95°C; 0.1°/s) and the Tm was calculated using the […]

E. coli FabI = molecular target: T1, E. coli FabI (Escherichia coli, UniProt P0AEK4); experiment: In vitro FabI enzymatic inhibition assay; assay type: biochemical; settings: EcFabI; Morrison's quadratic fit; 5 nM enzyme; read-out: Ki app
T1 construct: His(6) with TEV site (cleaved yes); made in house; host or cells: E. coli BL21(DE3)
T1 sequence (P0AEK4 whole entry): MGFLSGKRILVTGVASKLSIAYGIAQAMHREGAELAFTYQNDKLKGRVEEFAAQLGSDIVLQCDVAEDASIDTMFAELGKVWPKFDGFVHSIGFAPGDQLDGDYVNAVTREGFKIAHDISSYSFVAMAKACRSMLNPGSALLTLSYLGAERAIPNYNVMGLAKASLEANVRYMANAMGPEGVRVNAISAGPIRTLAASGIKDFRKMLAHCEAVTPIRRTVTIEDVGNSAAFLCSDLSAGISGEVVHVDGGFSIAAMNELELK
Method: as §7, §8, §9, §10

Aqueous solubility = assay type: physicochemical

Cc1c(CN(C)C(=O)/C=C/c2cnc3c(c2)CC[C@H](NC(=O)OC(C)(C)C)C(=O)N3)oc2ccccc12 [(S)-11]
MIC (A. baumannii AR-0033): 64 µg/mL (≈ 127 µM) | MIC (A. baumannii AR-0273): 8 µg/mL (≈ 15.9 µM) | MIC (A. baumannii AR-0299): 8 µg/mL (≈ 15.9 µM) | MIC (E. coli AR-0048): 16 µg/mL (≈ 31.7 µM) | MIC (E. coli AR-0085): 8 µg/mL (≈ 15.9 µM) | MIC (E. coli MG1655): 8 µg/mL (≈ 15.9 µM) | MIC (K. pneumoniae AR-0066): 64 µg/mL (≈ 127 µM) | MIC (K. pneumoniae AR-0560): 32 µg/mL (≈ 63.4 µM) | MIC (K. pneumoniae BAA-2472): 32 µg/mL (≈ 63.4 µM) | MIC (S. aureus ATCC 29213): 0.016 µg/mL (≈ 0.0317 µM) | MIC (E. coli ΔtolC (JW5503)): 0.125 µg/mL (≈ 0.248 µM) | MIC (A. baumannii AR-0313): 64 µg/mL (≈ 127 µM) | MIC (K. pneumoniae AR-0113): 32 µg/mL (≈ 63.4 µM) | Ki (A. baumannii FabI): 947 ± 234 nM | Ki (E. coli FabI): 60 ± 10 nM | aqueous solubility (Aqueous solubility): limited aqueous solubility

— article PMC9413440, “An Iterative Approach Guides Discovery of the FabI Inhibitor Fabimycin, a Late-Stage Antibiotic Candidate with In Vivo Efficacy against Drug-Resistant Gram-Negative Infections” (ACS Central Science, 2022)
